“Also recorded” adds a separate entry of the source. Where no end group is shown, it is not given here.
Legend:
renin = assay: Renin inhibitor screening kit (fluorometric FRET, DABCYL-EDANS); type: biochemical; conditions: for Mean inhibitory effect on renin activity: 5 min pre-incubation at 37°C, read every 60 s for 60 min at 37°C, ex/em 328/552 nm; for Renin inhibition (in words): 10, 100 and 500 nM, in vitro, 37°C
Description: (§1) Activity measurements for all three enzymes (renin, ACE1 and ACE2) were carried out using commercial inhibition kits following manufacturer’s instructions. Screening kits were purchased from Biovision (Biovision, Inc. San Francisco, CA). Candidate inhibitors used were human hepcidin-25/LEAP-1 (disulfide bonds between Cys7–Cys23, Cys10–Cys13, Cys11–Cys19, and Cys14–Cys22, purity assessed by HPLC ≥ 98.0%) purchased from Peptides International (Peptides International Inc, Louisville, KY) as well as N-terminal part of hepcidin, Asp-Thr-His-Phe-Pro (hepcidin-5) synthetized by Proteogenix (Schiltigheim, France).
All kits included the enzyme, substrate, and enzyme inhibitor as negative control. The fluorophore labelled substate was cleaved by the enzyme. The used fluorophores were a synthetic o-aminobenzoyl peptide for ACE1, 7-Methoxycoumarin-4-acetic acid (MCA) for ACE2 and 5-((2-Aminoethyl)amino)naphthalene-1-sulfonic acid (EDANS) for renin. DABCYL-EDANS is well-known FRET pair where fluorescence is quenched when peptide is uncleaved. Fluorescence signal is increased after peptide is cleaved and EDANS molecule is free in the solution. The fluorescence intensity was recorded and calculated as follows. According to renin inhibitor screening kit instructions hepcidin-25 and hepcidin-5 were first pipetted to a black ForteBio’s 96-well plate. Renin enzyme solution was added and mixed. Both candidate inhibitors were measured with final sample concentrations of 10 nM, 100 nM and 500 nM. The plate was incubated for 5 min at 37°C. Finally, substrate solution was added into each well. Fluorescence measurement was performed using Perkin Elmer UV/VIS Envision multimode plate reader. Excitation and emission wavelengths were 328 and 552 nm, respectively. Fluorescence was recorded every 60 s for 60 min at 37°C. Inhibitory activity of renin was calculated as follows: Renininhibitoryactivity(%)=1−Activitywithsample/Activitywithoutsamplex100 where “Activity with sample” is the slope calculated from the linear range of the fluorescence plot at the presence of candidate inhibitor. Activity without the sample represents the slope without any sample in the well.
Mean enzyme inhibitory activities with the standard error of means were calculated at different concentrations. Data analysis was performed using Microsoft Office 365 ProPlus Excel version 1902 for Windows. The hepcidin–renin binding data was treated as follows: Background was subtracted, and the data was normalised to allow comparison between experiments. The normalised data was analysed with […] regression analysis in GraphPad Prism 5.02 (GraphPad Software, La Jolla, CA) assuming one-site specific binding.

[1] = system: angiotensin-converting enzyme 1 (ACE1); assay: ACE1 inhibition screening kit (fluorometric); type: biochemical
Description: as §1
(§2) All kits included the enzyme, substrate, and enzyme inhibitor as negative control. […] DABCYL-EDANS is well-known FRET pair where fluorescence is quenched when peptide is uncleaved. Fluorescence signal is increased after peptide is cleaved and EDANS molecule is free in the solution. The fluorescence intensity was recorded and calculated as follows. […] Both candidate inhibitors were measured with final sample concentrations of 10 nM, 100 nM and 500 nM. […] Fluorescence measurement was performed using Perkin Elmer UV/VIS Envision multimode plate reader. […] Fluorescence was recorded every 60 s for 60 min at 37°C. […]
Briefly, ACE1 enzyme solution was added to a 96-well plate and each diluted candidate enzyme inhibitors were added. […] Fluorescence was recorded every 60s for 100 min at 37°C. […]

[2] = system: angiotensin-converting enzyme 2 (ACE2); assay: ACE2 inhibition screening kit (fluorometric); type: biochemical; conditions: 10, 100 and 500 nM; 15 min pre-incubation at room temperature, read every 60 s for 60 min, ex/em 320/420 nm; n = 3-6-4 (hepcidin-25), 3-6-3 (hepcidin-5)
Description: as §1
as §2, with “control. The fluorophore labelled substate was cleaved by the enzyme.” for “control.”
(§3) Mean enzyme inhibitory activities with the standard error of means were calculated at different concentrations. […]

human renin = assay: Bio-layer interferometry, hepcidin-renin binding; conditions: biotinylated renin on sensors; analyte 12.5-100 μM; ForteBio Octet RED384, PBS pH 7.2 and 150 mM NaCl, 27°C; association 0–1200 s, dissociation 1200–2000 s
Description: Human prorenin coding gene was ordered from GeneArt in pcDNA3.1(+) as fusion protein with a C-terminal His-tag. The pcDNA3.1 vector confers ampicillin resistance. Plasmid was dissolved in 50 μl of TE-EF and the amount of 100 ng was transferred into Escherichia coli TOP10 cells (Invitrogen, UK) with the heat shock method (30 s). In the next day colonies were picked for midiprep isolation. A single colony was picked and cultured in 5 ml media supplemented with 100 μg/ml ampicillin and 5 mM glucose for 7 hours after which it is moved to 200 ml LB media, which included ampicillin and glucose, and grown overnight at 37°C 220 rpm. The plasmid DNA was isolated using Nucleobond Xtra Midi Plus EF Kit (Macherey-Nagel, #7404220). Plasmid DNA produced was endotoxin-free. Human prorenin was then produced in ExpiCHO cells.
Cell pellet was re-suspended in 20 ml buffer (50 mM Hepes, 200 mM NaCl, 10% Glycerol, 1 mM TCEP, pH 7.5) and protease inhibitor tablet was added. Cell lysis was made with sonicator (1 min, 50%, 2 sec on/5 sec off cycle). […]
Biotinylation of renin was done using NHS-PEG4-Biotin (ThermoFisher Scientific) at 1:1 molar ratio. […] Concentration of biotinylated protein was measured using NanoDrop™ One Uv-Vis spectrophotometer (ThermoFisher Scientific). […]
as §3

Row | ACE2 inhibition (in words) [2] | Binding to renin (association and dissociation curves, in words) (human renin) | ACE1 inhibitory activity (strongest) ([1]; 500 nM, 15 min pre-incubation at 37°C, read every 60 s for 100 min at 37°C, ex/em 330/430 nm, n = 6) | Substance | Mean inhibitory effect on renin activity (renin; 10 nM peptide, n = 2) | Mean inhibitory effect on renin activity (renin; 100 nM peptide, n = 3) | Mean inhibitory effect on renin activity (renin; 500 nM peptide, n = 3) | Renin inhibition (in words) (renin) | ACE1 inhibition (in words) ([1]; 10, 100 and 500 nM, 37°C, n = 5-6-1 for hepcidin-25)
1 | not inhibited remarkably | concentration dependent | – | hepcidin-25: human hepcidin-25/LEAP-1 (disulfide bonds between Cys7–Cys23, Cys10–Cys13, Cys11–Cys19, and Cys14–Cys22), purchased from Peptides International | 20.4% | 29.2% | 38.3% | has an inhibitory effect on renin in vitro; also recorded: can bind to renin enzyme and inhibit its activity in vitro; also recorded: can bind to the active site of renin and inhibit its activity in vitro | not inhibited remarkably; also recorded: low inhibitory activity
2 | – | cannot bind to renin | – | hepcidin-20: control peptide, purchased from Pepnet; truncated isoform without N-terminal hepcidin-5 (ICIFCCGCCHRSKCGMCCKT; ends and bridges not checked; cysteine pairing not given here; UniProt P81172 65-84, looked up) | – | – | – | – | –
3 | – | – | 34.8% | Asp-Thr-His-Phe-Pro [hepcidin-5, N-terminal part of hepcidin, synthetized by Proteogenix] | 50.1% | 50.0% | 58.6% | stronger effect on renin than hepcidin-25 | –
